Assay: xn = mol fraction of the nth substance listed
Details: 101 kPa

CCCC[n+]1ccn(C)c1.F[P-](F)(F)(F)(F)F + Cc1ccccc1
viscosity [mPa·s]
Details	x2 = 0.05	x2 = 0.1	x2 = 0.2	x2 = 0.3	x2 = 0.4
298.15 K	–	149.5	111.5	67.3	42.9
300.65 K	126.7	99.9	–	50.1	–
303.15 K	98	–	55.7	–	24.6
305.65 K	79	57.3	44.2	–	20.42
308.15 K	65.7	47	36.8	–	17.61
310.65 K	56	–	31.7	24	15.61
313.15 K	48.7	34.7	27.9	21.33	–
315.65 K	43.1	30.8	25.1	19.23	12.97
318.15 K	38.7	27.8	22.96	–	12.06
320.65 K	35.1	25.4	21.23	–	–
323.15 K	32.2	23.49	19.82	15.09	10.71
325.65 K	29.8	21.91	18.66	14.15	10.21
328.15 K	–	20.59	17.68	13.36	9.77
330.65 K	–	19.47	16.85	12.68	9.4
333.15 K	24.5	18.52	16.14	12.09	9.08
335.65 K	23.16	17.69	15.52	11.58	–
338.15 K	–	16.96	14.98	11.13	8.56
